# Read-outs that look alike come from different tables or passages of the source.
# Columns and labels:
# [1] = Solubility of ingenol-3-angelate in co-solvents; format: physicochemical; conditions: organic solvent or mixture
# From the text: In order to effect a highly efficient dissolution of the ingenol derivative it may be favourably to add a co-solvent to the composition. The co-solvent may be selected from the group consisting of lower alcohols, such as n-propanol, isopropanol, n-butanol, 2-butanol or benzyl alcohol, diols such as propylene glycol, a pyrrolidone such as N-methylpyrrolidone or N-hydroxyalkylpyrrolidone, an azone, ethyl acetate, dodecyl amine, diethylene glycol monoethyl ether, a fatty acid such as oleic or lauric acid, propylene carbonate, menthol or limolene. In particular, ingenol-3-angelate is soluble to freely soluble in the co-solvents benzyl alcohol (201-223 mg/ml), N-methylpyrrolidone (104-260 mg/ml), ethyl acetate (102-255 mg/ml), isopropanol (225-248 mg/ml) and diethylene glycol monoethyl ether (57-114 mg/ml). Some of these co-solvents, such as lower alcohols, may also, as required, act as penetration enhancers aiding the penetration of the ingenol derivative into the viable layers of the skin.
# [2] = oral administration to rats, versus a formulation in lipid alone; cited from earlier work
Structure (SMILES),"solubility ([1]; co-solvent N-methylpyrrolidone, read-out: solubility in N-methylpyrrolidone)","solubility ([1]; co-solvent benzyl alcohol, read-out: solubility in benzyl alcohol)","solubility ([1]; co-solvent diethylene glycol monoethyl ether, read-out: solubility in diethylene glycol monoethyl ether)","solubility ([1]; co-solvent ethyl acetate, read-out: solubility in ethyl acetate)","solubility ([1]; co-solvent isopropanol, read-out: solubility in isopropanol)",bioavailability of seocalcitol [2]
"C/C=C(/C)C(=O)O[C@H]1C(C)=C[C@]23C(=O)[C@@H](C=C(CO)[C@@H](O)[C@]12O)[C@H]1[C@@H](C[C@H]3C)C1(C)C [ingenol-3-angelate, 2-methyl-2(Z)-butenoic acid (1aR,2S,5R,5aS,6S,8aS,9R,10aR)-5,5a-dihydroxy-4-(hydroxymethyl)-1,1,7,9-tetramethyl-11-oxo-1a,2,5,5a,6,9,10,10a-octahydro-1H-2,8a-methanocyclopenta[a]cyclopropa[e]cyclodecen-6-yl ester]",104 to 260 mg/mL,201 to 223 mg/mL,57 to 114 mg/mL,102 to 255 mg/mL,225 to 248 mg/mL,–
C=C1/C(=C\C=C2/CCC[C@]3(C)[C@@H]([C@H](C)/C=C/C=C/C(O)(CC)CC)CC[C@@H]23)C[C@@H](O)C[C@@H]1O [seocalcitol],–,–,–,–,–,not improved
